Experimental data reported in patent US10758534B2 (Vertex Pharmaceuticals Incorporated, priority 2014, dated 2020).

molecular target: T1, F508del (Homo sapiens, UniProt P13569, DEL508-508); assay: Protocol 2: FRET membrane potential optical assay (VIPR), identification of correction compounds; format: cell-based; settings: F508del CFTR modulator activity; compounds of Table 1; read-out: EC30
T1 construct: expressed in transfected cells
In short: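 NIH3T3 mouse fibroblasts stably expressing F508del were treated with test compound for 16 hrs at 37° C. in serum-free medium; 27° C. incubation served as positive control. F508del was activated with 10 μM forskolin plus 20 μM genistein in Cl^−-free medium, and Cl^− efflux-driven depolarization was read by DiSBAC2(3)/CC2-DMPE FRET.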

T1 sequence (P13569 with tags, fused parts or gaps DEL508-508): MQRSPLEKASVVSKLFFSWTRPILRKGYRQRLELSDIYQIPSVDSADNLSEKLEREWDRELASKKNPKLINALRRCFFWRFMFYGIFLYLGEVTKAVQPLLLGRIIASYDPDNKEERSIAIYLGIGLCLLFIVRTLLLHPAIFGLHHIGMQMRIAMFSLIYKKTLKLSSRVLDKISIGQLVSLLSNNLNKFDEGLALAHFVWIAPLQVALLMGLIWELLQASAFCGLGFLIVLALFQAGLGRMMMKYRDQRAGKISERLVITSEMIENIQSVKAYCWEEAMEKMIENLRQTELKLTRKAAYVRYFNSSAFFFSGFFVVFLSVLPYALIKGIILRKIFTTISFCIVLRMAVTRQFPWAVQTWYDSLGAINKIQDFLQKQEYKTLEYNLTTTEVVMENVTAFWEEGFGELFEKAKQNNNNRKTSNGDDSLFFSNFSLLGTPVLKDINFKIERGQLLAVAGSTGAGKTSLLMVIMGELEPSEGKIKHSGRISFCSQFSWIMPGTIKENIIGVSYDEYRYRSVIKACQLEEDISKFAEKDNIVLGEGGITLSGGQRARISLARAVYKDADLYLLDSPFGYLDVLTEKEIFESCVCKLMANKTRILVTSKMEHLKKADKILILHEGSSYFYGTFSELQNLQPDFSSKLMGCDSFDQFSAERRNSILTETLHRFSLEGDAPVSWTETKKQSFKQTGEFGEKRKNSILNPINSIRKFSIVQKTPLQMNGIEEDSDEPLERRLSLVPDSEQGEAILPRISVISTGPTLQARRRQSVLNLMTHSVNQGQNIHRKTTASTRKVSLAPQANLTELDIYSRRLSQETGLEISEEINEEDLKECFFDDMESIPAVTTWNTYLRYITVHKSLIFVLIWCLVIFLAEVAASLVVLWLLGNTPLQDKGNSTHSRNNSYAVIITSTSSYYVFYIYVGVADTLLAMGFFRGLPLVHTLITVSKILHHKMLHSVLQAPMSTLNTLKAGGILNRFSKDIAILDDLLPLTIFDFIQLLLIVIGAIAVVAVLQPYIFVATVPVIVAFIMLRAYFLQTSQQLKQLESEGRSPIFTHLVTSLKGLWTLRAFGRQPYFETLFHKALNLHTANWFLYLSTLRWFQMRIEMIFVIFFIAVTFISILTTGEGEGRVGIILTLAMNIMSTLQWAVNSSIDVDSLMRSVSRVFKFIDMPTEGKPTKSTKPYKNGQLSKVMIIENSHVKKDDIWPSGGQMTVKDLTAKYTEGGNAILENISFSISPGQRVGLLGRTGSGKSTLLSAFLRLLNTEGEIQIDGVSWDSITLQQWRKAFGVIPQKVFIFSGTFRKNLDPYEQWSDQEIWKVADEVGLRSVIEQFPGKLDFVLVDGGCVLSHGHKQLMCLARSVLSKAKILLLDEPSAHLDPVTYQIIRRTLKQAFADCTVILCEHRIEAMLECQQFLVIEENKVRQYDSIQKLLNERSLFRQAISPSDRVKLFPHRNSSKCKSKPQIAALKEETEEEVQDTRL

Row | EC30 [µM] | SMILES
1 | < 3 | CC1CN(c2ncccc2C(=O)NS(=O)(=O)c2cccc(Nc3ccc(Cl)cc3Cl)n2)C(C)(C)C1 (stereo not drawn) [Compound 2217, N—[[6-(2,4-dichloroanilino)-2-pyridyl]sulfonyl]-2-(2,2,4-trimethylpyrrolidin-1-yl)pyridine-3-carboxamide]
2 | < 3 | CC1CN(c2ncccc2C(=O)NS(=O)(=O)c2cccc(NC3CCCCC3C)n2)C(C)(C)C1 (stereo not drawn) [Compound 2218, N—[[6-[(2-methylcyclohexyl)amino]-2-pyridyl]sulfonyl]-2-(2,2,4-trimethylpyrrolidin-1-yl)pyridine-3-carboxamide]
3 | 3 to 10 | C[C@@H]1CN(c2nc(-c3cccc(C(F)(F)F)c3)ccc2C(=O)NS(=O)(=O)N2CC[C@H](N)C2)C(C)(C)C1 [Compound 2220, N-[(3S)-3-aminopyrrolidin-1-yl]sulfonyl-6-[3-(trifluoromethyl)phenyl]-2-[(4S)-2,2,4-trimethylpyrrolidin-1-yl]pyridine-3-carboxamide]
4 | 3 to 10 | CCCC(C)N1CCN(c2cccc(S(=O)(=O)NC(=O)c3cccnc3N3CC(C)CC3(C)C)n2)CC1 (stereo not drawn) [Compound 2226, N—[[6-[4-(1-methylbutyl)piperazin-1-yl]-2-pyridyl]sulfonyl]-2-(2,2,4-trimethylpyrrolidin-1-yl)pyridine-3-carboxamide]
5 | < 3 | CC(C)Cn1cc(-c2ccc(C(=O)NS(=O)(=O)c3cccnc3N)c(N3C[C@@H](C)CC3(C)C)n2)cn1 [Compound 2231, N-[(2-amino-3-pyridyl)sulfonyl]-6-(1-isobutylpyrazol-4-yl)-2-[(4S)-2,2,4-trimethylpyrrolidin-1-yl]pyridine-3-carboxamide]
6 | 3 to 10 | Cc1cc(O)cc(-c2ccc(C(=O)NS(=O)(=O)c3cccc(N)n3)c(N3C[C@@H](C)CC3(C)C)n2)c1 [Compound 2232, N-[(6-amino-2-pyridyl)sulfonyl]-6-(3-hydroxy-5-methyl-phenyl)-2-[(4S)-2,2,4-trimethylpyrrolidin-1-yl]pyridine-3-carboxamide]
7 | < 3 | COc1cccc(Oc2cccc(S(=O)(=O)NC(=O)c3cccnc3N3CC(C)CC3(C)C)n2)c1OC (stereo not drawn) [Compound 2233, N—[[6-(2,3-dimethoxyphenoxy)-2-pyridyl]sulfonyl]-2-(2,2,4-trimethylpyrrolidin-1-yl)pyridine-3-carboxamide]

The next lines start with the compound.

Row | SMILES | EC30 [µM]
8 | CCOc1ccc(Nc2cccc(S(=O)(=O)NC(=O)c3cccnc3N3CC(C)CC3(C)C)n2)cc1 (stereo not drawn) [Compound 2214, N—[[6-(4-ethoxyanilino)-2-pyridyl]sulfonyl]-2-(2,2,4-trimethylpyrrolidin-1-yl)pyridine-3-carboxamide] | < 3
9 | Cc1noc(C)c1-c1ccc(C(=O)NS(=O)(=O)c2cccnc2N)c(N2C[C@@H](C)CC2(C)C)n1 [Compound 2215, N-[(2-amino-3-pyridyl)sulfonyl]-6-(3,5-dimethylisoxazol-4-yl)-2-[(4S)-2,2,4-trimethylpyrrolidin-1-yl]pyridine-3-carboxamide] | 3 to 10
10 | CC(C)COc1cc(F)cc(-c2ccc(C(=O)NS(=O)(=O)c3cccc(N)n3)c(N3CCC[C@@H]3C(=O)OC(C)(C)C)n2)c1 [Compound 2216, tert-butyl (2R)-1-[3-[(6-amino-2-pyridyl)sulfonylcarbamoyl]-6-(3-fluoro-5-isobutoxy-phenyl)-2-pyridyl]pyrrolidin-2-carboxylate] | < 3
11 | COc1ccc(-c2ccc(C(=O)NS(=O)(=O)c3ccc[nH]c3=O)c(N3C[C@@H](C)CC3(C)C)n2)cc1F [Compound 2219, 6-(3-fluoro-4-methoxy-phenyl)-N-[(2-oxo-1H-pyridin-3-yl)sulfonyl]-2-[(4S)-2,2,4-trimethylpyrrolidin-1-yl]pyridine-3-carboxamide] | 3 to 10
12 | CCC(COC)Nc1cccc(S(=O)(=O)NC(=O)c2cccnc2N2CC(C)CC2(C)C)n1 (stereo not drawn) [Compound 2221, N—[[6-[1-(methoxymethyl)propylamino]-2-pyridyl]sulfonyl]-2-(2,2,4-trimethylpyrrolidin-1-yl)pyridine-3-carboxamide] | 3 to 10
13 | COc1cccc(-c2ccc(C(=O)NS(=O)(=O)c3ccc[nH]c3=O)c(N3C[C@@H](C)CC3(C)C)n2)c1F [Compound 2222, 6-(2-fluoro-3-methoxy-phenyl)-N-[(2-oxo-1H-pyridin-3-yl)sulfonyl]-2-[(4S)-2,2,4-trimethylpyrrolidin-1-yl]pyridine-3-carboxamide] | 3 to 10
14 | C[C@@H]1CN(c2nc(-c3ccc(OC(F)(F)F)cc3)ccc2C(=O)NS(=O)(=O)c2cccnc2N)C(C)(C)C1 [Compound 2223, N-[(2-amino-3-pyridyl)sulfonyl]-6-[4-(trifluoromethoxy)phenyl]-2-[(4S)-2,2,4-trimethylpyrrolidin-1-yl]pyridine-3-carboxamide] | < 3
15 | CC(C)COc1cc(F)cc(-c2ccc(C(=O)NS(=O)(=O)c3cccc(N)n3)c(N3CC4CC(C3)C4C)n2)c1 (stereo not drawn) [Compound 2224, N-[(6-amino-2-pyridyl)sulfonyl]-6-(3-fluoro-5-isobutoxy-phenyl)-2-(6-methyl-3-azabicyclo[3.1.1]heptan-3-yl)pyridine-3-carboxamide] | < 3
16 | Cc1cccc(-c2ccc(C(=O)NS(=O)(=O)N3CC[C@H](N)C3)c(N3C[C@@H](C)CC3(C)C)n2)c1C [Compound 2225, N-[(3S)-3-aminopyrrolidin-1-yl]sulfonyl-6-(2,3-dimethylphenyl)-2-[(4S)-2,2,4-trimethylpyrrolidin-1-yl]pyridine-3-carboxamide] | 3 to 10
17 | CCOc1cc(C)c(-c2ccc(C(=O)NS(=O)(=O)c3cccc(N)n3)c(N3C[C@@H](C)CC3(C)C)n2)cc1C [Compound 2227, N-[(6-amino-2-pyridyl)sulfonyl]-6-(4-ethoxy-2,5-dimethyl-phenyl)-2-[(4S)-2,2,4-trimethylpyrrolidin-1-yl]pyridine-3-carboxamide] | < 3
18 | CC(C)COc1cc(F)cc(-c2ccc(C(=O)NS(=O)(=O)N3CC[C@H](F)C3)c(N3C[C@@H](C)CC3(C)C)n2)c1 [Compound 2228, 6-(3-fluoro-5-isobutoxy-phenyl)-N-[(3S)-3-fluoropyrrolidin-1-yl]sulfonyl-2-[(4S)-2,2,4-trimethylpyrrolidin-1-yl]pyridine-3-carboxamide] | < 3
19 | C[C@@H]1CN(c2nc(-c3ccc(F)c(F)c3)ccc2C(=O)NS(=O)(=O)N2CC[C@H](N)C2)C(C)(C)C1 [Compound 2229, N-[(3S)-3-aminopyrrolidin-1-yl]sulfonyl-6-(3,4-difluorophenyl)-2-[(4S)-2,2,4-trimethylpyrrolidin-1-yl]pyridine-3-carboxamide] | 3 to 10
20 | CC1CN(c2nc(OC(C)C)c(F)cc2C(=O)NS(=O)(=O)c2cccc(N)n2)C(C)(C)C1 (stereo not drawn) [Compound 2230, N-[(6-amino-2-pyridyl)sulfonyl]-5-fluoro-6-isopropoxy-2-(2,2,4-trimethylpyrrolidin-1-yl)pyridine-3-carboxamide] | < 3
21 | C[C@@H]1CN(c2nc(-c3ccc(OC(F)(F)F)cc3)ccc2C(=O)NS(=O)(=O)c2ccc[nH]c2=O)C(C)(C)C1 [Compound 2234, N-[(2-oxo-1H-pyridin-3-yl)sulfonyl]-6-[4-(trifluoromethoxy)phenyl]-2-[(4S)-2,2,4-trimethylpyrrolidin-1-yl]pyridine-3-carboxamide] | < 3
